# Measurements from patent publication US20260069606A1, “Oxidative Stress and Diabetes Treatment with Cobinamide” (The Regents of the University of California, priority 2022, published 2026).
# Tests used:
# [1] = system: hearts of diabetic mice; assay: Lipid and protein oxidation and DNA damage in hearts of diabetic mice; assay type: in vivo
# Method: (§1) FIGS. 4A-4K. Cobinamide Rescues Flies from Paraquat Poisoning and Prevents Abnormal Lipid and Protein Oxidation, DNA Damage, and Fibrosis in the Hearts of Diabetic Mice. FIG. 4A. At time zero, 10 fruit flies (D. melanogaster) were transferred to vials with food to which either phosphate-buffered saline (PBS), 0.8 mM of the indicated drugs, 20 mM paraquat (PQ), or 20 mM paraquat with 0.8 mM of the indicated drugs had been added. The number of live flies was counted each day for 7 d. The experiment was repeated seven times, for a total of 70 flies per condition. The percent surviving flies was calculated; error bars represent standard deviations and are shown in one direction only for sake of clarity. FIGS. 4B-4K. […] The amount of 8-isoprostane (FIG. 4B) was measured by ELISA, protein oxidation (FIGS. 4C-4D) was assessed by immunoblotting, and nitrotyrosine content (FIGS. 4E-4F) was assessed by immunohistochemistry. DNA damage was assessed by 8-OH-deoxyguanosine staining (FIGS. 4G-4H) and a long amplicon qPCR-based assay (FIG. 4I). Cardiac fibrosis (FIGS. 4J-4K) was assessed by Mallory trichrome staining, which stains collagen blue. […] For Panels C, D, and I, frozen heart samples were selected randomly from each of the four groups and were analyzed. For Panel D, blots were analyzed by densitometric scanning using Li-Cor Odyssey software, with the density of each lane normalized to the actin band. […]
# [2] = system: hearts of diabetic mice; assay: Cardiac fibrosis (collagen deposition, Mallory trichrome) in diabetic mice; assay type: in vivo; details: three months histidyl-cobinamide in drinking water
# Method: as §1
# [3] = mouse, in vivo
# Method: Male C57BL/6NHsd mice (20 weeks old) were housed three to four animals per cage in a temperature-controlled environment with a 12-h light/dark cycle and fed standard rodent chow with ad libitum access to food and water. After one week of acclimatization, mice weighing 30±3 g were injected intraperitoneally for five consecutive days with either saline (n=20) or 50 mg/kg streptozotocin (n=20) 69. […] The 16 diabetic mice and a corresponding number of the saline-injected, non-diabetic mice were split randomly in half to receive either plain drinking water or histidyl-cobinamide in the drinking water. The four groups of animals are referred to as: diabetic vehicle (D-Veh); diabetic, cobinamide-treated (D-Cbi); non-diabetic, vehicle (ND-Veh); and non-diabetic, cobinamide-treated (ND-Cbi). The histidyl-cobinamide concentration was 1 mM for the ND-Cbi mice, but because the diabetic mice drank more than the non-diabetic mice, the cobinamide concentration for the D-Cbi mice was decreased accordingly. The water was replenished twice a week.
# After three months of treatment, the mice were weighed, fasted for 6 h, and then underwent an intraperitoneal glucose tolerance test (IPGTT) using 2 g/kg of a 20% glucose solution. Blood glucose concentrations were measured just before the glucose injection (time 0, fasting specimen) and at 15, 30, 60, and 120 min following the injection. […] Two days later, the mice were euthanized by inducing deep anesthesia with 200 mg/kg ketamine and 40 mg/kg xylazine administered by intraperitoneal injection, followed by exsanguination via an open cardiac puncture.
# Type I diabetic mice were generated using streptozotocin, and then provided cobinamide in the drinking water for three months.
compound,measurement,setting,value
"C/C1=C2/[N-][C@H]([C@H](CC(N)=O)[C@@]2(C)CCC(=O)NC[C@@H](C)O)[C@]2(C)N=C(/C(C)=C3N=C(/C=C4N=C1[C@@H](CCC(N)=O)C\4(C)C)[C@@H](CCC(N)=O)[C@]\3(C)CC(N)=O)[C@@H](CCC(N)=O)[C@]2(C)CC(N)=O.[Co+3] [cobinamide, aquohydroxo-cobinamide]",All markers of oxidative stress and DNA damage in hearts of diabetic mice,"[1]; 8-isoprostane, protein carbonylation, nitrotyrosine, 8-OH-deoxyguanosine, long-amplicon PCR, three months histidyl-cobinamide in drinking water",significantly reduced all markers of oxidative stress and DNA damage to values similar to those found in the non-diabetic mice
same,Tyrosine nitration in hearts of diabetic mice,[1]; nitrotyrosine immunohistochemistry,reduced
same,Collagen content in hearts of diabetic mice,[2],reduced collagen content in the hearts of the diabetic mice essentially to that of non-diabetic mice
same,"Plasma cobinamide concentration, diabetic mice",[3],0.55 ± 0.36 µM
same,"Plasma cobinamide concentration, non-diabetic mice",[3],0.11 ± 0.07 µM
